In PMC3658555 (ACS Chemical Biology, 2013):

What was measured:
[1] = target: T1, β2AR (Homo sapiens, UniProt P07550); assay: Bias factor by the operational model, β-arrestin recruitment; format: cell-based
[2] = target: T1, β2AR; assay: GloSensor cAMP formation assay; format: cell-based; details: from cAMP formation and β-arrestin recruitment

T1 sequence (P07550 whole entry): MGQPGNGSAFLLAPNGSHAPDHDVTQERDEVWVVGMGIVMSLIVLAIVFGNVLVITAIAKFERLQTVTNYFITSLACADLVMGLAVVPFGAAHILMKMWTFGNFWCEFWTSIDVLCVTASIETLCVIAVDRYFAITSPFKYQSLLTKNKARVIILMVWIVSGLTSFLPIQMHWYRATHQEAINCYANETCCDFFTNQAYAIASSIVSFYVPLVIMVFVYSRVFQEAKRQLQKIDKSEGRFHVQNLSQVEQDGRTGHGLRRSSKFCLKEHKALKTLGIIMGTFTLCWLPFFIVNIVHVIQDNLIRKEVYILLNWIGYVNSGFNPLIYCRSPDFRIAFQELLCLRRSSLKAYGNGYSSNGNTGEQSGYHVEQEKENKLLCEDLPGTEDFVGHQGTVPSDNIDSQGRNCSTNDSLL

CC(Cc1ccc2c(c1)OCO2)NCC(O)c1ccc(O)c(O)c1 (stereo not drawn) [Compound 12, protokylol]
times more efficacious in β-arrestin recruitment than in G protein-mediated cAMP production ([1]; compared to isoproterenol, the unbiased reference): approximately 10 times
bias factor ([1]; toward β-arrestin, from both Tango and DiscoveRx β-arrestin against Glosensor cAMP data sets, reference isoproterenol): around 1
agonist efficacy class at β2AR [2]: full agonists
